Laboratory results: patent US20250345370A1, “MICROBIAL LIBERATION OF N-METHYLSEROTONIN FROM ORANGE FIBER” (Washington University, priority 2022, published 2025)

Key:
[1] = tested on: colon gene expression; assay: RNA-Seq of colonic tissue of germ-free mice treated with 50 mg/kg/d N-methylserotonin; assay type: in vivo, germ-free C57BL/6J mice; details: for log2 fold-change: colon
[2] = biological target: 5-Htr7 (Homo sapiens, UniProt P34969); details: in vitro studies; cited from earlier work
Sequence of 5-Htr7 (P34969 whole entry): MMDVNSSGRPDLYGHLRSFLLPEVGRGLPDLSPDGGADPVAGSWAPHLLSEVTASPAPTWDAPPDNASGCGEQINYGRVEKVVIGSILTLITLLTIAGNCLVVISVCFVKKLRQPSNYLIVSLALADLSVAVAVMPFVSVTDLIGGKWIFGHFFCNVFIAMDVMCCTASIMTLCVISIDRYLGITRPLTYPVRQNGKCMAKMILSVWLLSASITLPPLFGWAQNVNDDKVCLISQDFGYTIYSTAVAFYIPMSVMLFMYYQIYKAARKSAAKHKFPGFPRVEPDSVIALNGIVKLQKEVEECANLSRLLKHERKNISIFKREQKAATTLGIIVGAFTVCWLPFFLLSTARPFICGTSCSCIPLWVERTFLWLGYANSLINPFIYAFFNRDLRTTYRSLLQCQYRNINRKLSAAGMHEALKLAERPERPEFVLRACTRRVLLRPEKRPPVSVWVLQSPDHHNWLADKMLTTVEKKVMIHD

SMILES: CNCCc1c[nH]c2ccc(O)cc12 [N-methylserotonin]
- colonic expression of known (Htr7, Htr2A) or related (Htr3, Htr4, Htr5 and Htr6) receptors ([1]; 50 mg/kg/d vs untreated): did not reveal any statistically significant effects
- number of genes with statistically significant differences in expression in colonic tissue ([1]; 50 mg/kg/d vs untreated, FDR-adjusted p<0.05): Seven hundred and forty-eight
- log2 fold-change ([1]; gene 6430548M08Rik): 0.47
- log2 fold-change ([1]; gene Aass): 4.35
- log2 fold-change ([1]; gene Adgrg6): 1.06
- log2 fold-change ([1]; gene Adgrl1): 0.82
- log2 fold-change ([1]; gene Aldh1l2): 1.36
- log2 fold-change ([1]; gene Ankrd35): 1.27
- log2 fold-change ([1]; gene Anxa9): 3.41
- log2 fold-change ([1]; gene Arhgef17): 0.43
- log2 fold-change ([1]; gene Atf5): 0.70
- log2 fold-change ([1]; gene Atp6v1c2): 5.46
- log2 fold-change ([1]; gene Azgp1): 3.05
- log2 fold-change ([1]; gene Baiap2): 0.55
- log2 fold-change ([1]; gene Bcl9l): 0.57
- log2 fold-change ([1]; gene Bhlha15): 2.54
- log2 fold-change ([1]; gene C1s2): 6.81
- log2 fold-change ([1]; gene Cabp1): 2.18
- log2 fold-change ([1]; gene Cbx6): 0.65
- log2 fold-change ([1]; gene Cecr2): 1.23
- log2 fold-change ([1]; gene Cirbp): 0.65
- log2 fold-change ([1]; gene Clca4a): 0.41
- log2 fold-change ([1]; gene Col18a1): 0.40
- log2 fold-change ([1]; gene Crybg2): 0.56
- log2 fold-change ([1]; gene Dbp): 1.14
- log2 fold-change ([1]; gene Derl3): 3.02
- log2 fold-change ([1]; gene Dixdc1): 0.49
- log2 fold-change ([1]; gene Dkkl1): 4.99
- log2 fold-change ([1]; gene Dnase2b): 6.74
- log2 fold-change ([1]; gene Doxl2): 0.01
- log2 fold-change ([1]; gene Epop): 1.75
- log2 fold-change ([1]; gene Fam214a): 0.49
- log2 fold-change ([1]; gene Fbf1): 0.51
- log2 fold-change ([1]; gene Fgl1): 3.75
- log2 fold-change ([1]; gene Gdf7): 2.66
- log2 fold-change ([1]; gene Gdf10): 0.91
- log2 fold-change ([1]; gene Gm973): 1.71
- log2 fold-change ([1]; gene Gprc5c): 2.14
- log2 fold-change ([1]; gene Gsdma): 3.93
- log2 fold-change ([1]; gene Gspt2): 1.14
- log2 fold-change ([1]; gene Hdac7): 0.63
- log2 fold-change ([1]; gene Hoxd9): 1.18
- log2 fold-change ([1]; gene Igfbp5): 0.78
- log2 fold-change ([1]; gene Impdh1): 0.53
- log2 fold-change ([1]; gene Islr): 0.52
- log2 fold-change ([1]; gene Itpripl2): 0.42
- log2 fold-change ([1]; gene Jag2): 0.92
- log2 fold-change ([1]; gene Kdm6b): 0.57
- log2 fold-change ([1]; gene Krt14): 2.57
- log2 fold-change ([1]; gene Lamc1): 0.37
- log2 fold-change ([1]; gene Lrrc75b): 2.59
- log2 fold-change ([1]; gene Man2a2): 0.35
- log2 fold-change ([1]; gene Masp1): 1.38
- log2 fold-change ([1]; gene Mns1): 1.12
- log2 fold-change ([1]; gene Mtss2): 0.61
- log2 fold-change ([1]; gene Mxra8): 0.45
- log2 fold-change ([1]; gene Nkx3-1): 0.01
- log2 fold-change ([1]; gene Npr1): 0.99
- log2 fold-change ([1]; gene Nr1d1): 0.81
- log2 fold-change ([1]; gene Nucb2): 3.53
- log2 fold-change ([1]; gene Pacsin3): 0.87
- log2 fold-change ([1]; gene Panct2): 1.72
- log2 fold-change ([1]; gene Pate4): 7.55
- log2 fold-change ([1]; gene Pate9): 0.01
- log2 fold-change ([1]; gene Pate14): 6.47
- log2 fold-change ([1]; gene Per2): 0.67
- log2 fold-change ([1]; gene Pgm5): 0.29
- log2 fold-change ([1]; gene Pik3ip1): 1.04
- log2 fold-change ([1]; gene Pitpnm3): 0.67
- log2 fold-change ([1]; gene Plau): 0.93
- log2 fold-change ([1]; gene Pou3f3): 1.18
- log2 fold-change ([1]; gene Prrc2a): 0.49
- log2 fold-change ([1]; gene Ptges): 1.14
- log2 fold-change ([1]; gene Rapgef3): 0.54
- log2 fold-change ([1]; gene Rbms3): 0.45
- log2 fold-change ([1]; gene Rcn1): 2.72
- log2 fold-change ([1]; gene Rec8): 1.38
- log2 fold-change ([1]; gene Rgs7bp): 0.57
- log2 fold-change ([1]; gene Rhobtb3): 0.86
- log2 fold-change ([1]; gene Serpine2): 2.50
- log2 fold-change ([1]; gene Serpinf1): 0.82
- log2 fold-change ([1]; gene Shroom1): 2.33
- log2 fold-change ([1]; gene Slc4a8): 1.04
- log2 fold-change ([1]; gene Slc23a1): 1.80
- log2 fold-change ([1]; gene Sp8): 2.57
- log2 fold-change ([1]; gene Spinkl): 7.58
- log2 fold-change ([1]; gene Spock2): 0.54
- log2 fold-change ([1]; gene Sptb): 0.85
- log2 fold-change ([1]; gene Stard5): 0.43
- log2 fold-change ([1]; gene Sva): 6.86
- log2 fold-change ([1]; gene Syvn1): 0.58
- log2 fold-change ([1]; gene Tgfbr3): 0.43
- log2 fold-change ([1]; gene Tgm4): 9.55
- log2 fold-change ([1]; gene Tmem44): 0.56
- log2 fold-change ([1]; gene Tns1): 0.44
- log2 fold-change ([1]; gene Uox): 2.40
- log2 fold-change ([1]; gene Upk1b): 2.61
- log2 fold-change ([1]; gene Vat1): 0.64
- log2 fold-change ([1]; gene Vwa1): 0.64
- log2 fold-change ([1]; gene Zbtb4): 0.37
- log2 fold-change ([1]; gene Zbtb16): 1.21
- log2 fold-change ([1]; gene Zfhx3): 0.54
- binding [2]: binds
